# In patent US20060099648A1, “Compositions and methods for epitope mapping” (priority 2000, published 2006):
# System: MSP1-19
# Experiment: Epitope mapping: displacement of human IgG from peptide pins on exposure to MSP1-19
# Parameters: species or system Plasmodium falciparum
# Settings: change in human IgG binding to peptide pin after 1 h exposure to 50 mg/mL MSP1-19 at room temperature; normalised to no-peptide pins and control peptide GLAQG
# Procedure: A natural human IgG antibody library was tested for its ability to bind to peptides associated with the 19 kDa C-terminal region of merozoite surface protein 1 (MSP1-19) from Plasmodium falciparum (Kaslow et al., Mol. Biochem. Parasitology 63:283-289 (1994)). The 89 amino acid sequence from MSP1-19 was used for the epitope mapping experiment (see Table 1).
# Briefly, a library of pentamer peptides was synthesized on polypropylene pins following the procedures described by Geysen et al., Proc. Natl. Acad. Sci. USA 81:3998-4002 (1984). These peptides represented all five-amino-acid stretches of MSP1-19 offset by one residue (Table 1). Peptide pins were precoated in phosphate buffered saline (PBS), pH 7.2, containing 2% BSA and 0.1% TWEEN 20 for one hour at room temperature. Five successive washes of the pins were carried out for five minutes each with agitation in PBS. Human IgG (Calbiochem; San Diego Calif.) was complexed to the peptides by incubating 0.1 mg/mL IgG in PBS at 4° C. for 30 hours. Unbound antibody was removed by washing as described above in 10 mM TRIS, pH 7.4 buffer containing 150 mM NaCl (TBS) using new microtiter plates for transferring the pins for each of the five washings. Anti-human IgG (goat) alkaline phosphatase conjugate was diluted to 0.1 mg specific antibody/mL in TBS and incubated with the peptide/antibody complex for one hour at room temperature before washing five times with TBS, as described above. The pins were then incubated in assay solution containing 10 mM TRIS, pH 8.0, 150 mM NaCl, 0.5 mM MgCl2, and 0.1 mM 4-methylumbelliferyl-phosphate for 30 minutes at room temperature in the dark. Following incubation, the fluorescence intensity of the assay solution was measured in a Spectromax Gemini plate reader (Molecular Devices; Sunnyvale Calif.)(ex 358 nm/em 450 nm).
# The peptide/antibody complexes on the pins were washed five times in TBS, as described above, and incubated with 50 mg/mL MSP1-19 diluted in TBS for one hour at room temperature. The pins were washed in TBS as before and incubated in assay mixture for 30 minutes in the dark prior to measurement of the fluorescent intensity. Change in binding was determined using the equation: ΔF=(FMSP−Fb,MSP)/(F100,MSP−Fb,MSP)−(F0−Fb,0)/(F100,0−Fb,0) where FMSP and F0 are the fluorescence intensities of peptide containing pins after and before exposure to MSP1-19, respectively. Fb,MSP and Fb,0 are the fluorescence intensities of pins with no peptide after and before exposure to MSP1-19, respectively. F100,MSP and F100,0 are the fluorescence intensities of pins containing a control peptide, GLAQG (SEQ ID NO:90), after and prior to exposure to MSP1-19.
row,Molecule,ΔF (%)
1,KPDSY [Peptide 80],11
2,TCNEN [Peptide 48],<5
3,DSYPL [Peptide 82],9
4,DAKCT [Peptide 59],<5
5,EECKC [Peptide 26],<5
6,KITCE [Peptide 73],7
7,KQEGD [Peptide 35],<5
8,PLFDG [Peptide 85],16
9,DSGSN [Peptide 66],9
10,ADAKC [Peptide 58],<5
11,NYKQE [Peptide 33],<5
12,KKQCP [Peptide 9],<5
13,TCECT [Peptide 75],12
14,LNYKQ [Peptide 32],<5
15,GDKCV [Peptide 38],<5
16,GIFCS [Peptide 89],11
17,ISQHQ [Peptide 2],<5
18,NENNG [Peptide 50],5
19,LFDGI [Peptide 86],11
20,REECK [Peptide 25],<5
21,ECKCL [Peptide 27],<5
22,ITCEC [Peptide 74],5
23,ENNGG [Peptide 51],<5

row,Molecule,ΔF (%)
1,GCFRH [Peptide 17],<5
2,PDSYP [Peptide 81],9
3,KQCPQ [Peptide 10],<5
4,NGKKI [Peptide 70],12
5,PQNSG [Peptide 13],<5
6,NNGGC [Peptide 52],6
7,FDGIF [Peptide 87],9
8,DKCVE [Peptide 39],<5
9,SGSNG [Peptide 67],<5
10,YPLFD [Peptide 84],12
11,QCVKK [Peptide 6],<5
12,VKKQC [Peptide 8],<5
13,TKPDS [Peptide 79],11
14,EREEC [Peptide 24],<5
15,CTEED [Peptide 62],<5
16,GKKIT [Peptide 71],6
17,CKCLL [Peptide 28],<5
18,ENPNP [Peptide 43],<5
19,LDERE [Peptide 22],<5
20,GCDAD [Peptide 55],7
21,SQHQC [Peptide 3],<5
22,LLNYK [Peptide 31],<5
23,QCPQN [Peptide 11],<5

row,Molecule,ΔF (%)
1,AKCTE [Peptide 60],5
2,KCTEE [Peptide 61],6
3,FRHLD [Peptide 19],<5
4,CECTK [Peptide 76],<5
5,ECTKP [Peptide 77],13
6,CTKPD [Peptide 78],10
7,QNSGC [Peptide 14],<5
8,NPNPT [Peptide 44],<5
9,KCLLN [Peptide 29],<5
10,CLLNY [Peptide 30],<5
11,EDSGS [Peptide 65],7
12,CNENN [Peptide 49],16
13,CPQNS [Peptide 12],<5
14,NISQH [Peptide 1],<5
15,VENPN [Peptide 42],<5
16,NSGCF [Peptide 15],<5
17,SYPLF [Peptide 83],13
18,CDADA [Peptide 56],<5
19,CFRHL [Peptide 18],<5
20,DGIFC [Peptide 88],7
21,NPTCN [Peptide 46],<5
22,CVKKQ [Peptide 7],<5
23,DEREE [Peptide 23],<5

row,Molecule,ΔF (%)
1,SNGKK [Peptide 69],<5
2,EEDSG [Peptide 64],7
3,KKITC [Peptide 72],9
4,GSNGK [Peptide 68],<5
5,NGGCD [Peptide 53],10
6,RHLDE [Peptide 20],<5
7,KCVEN [Peptide 40],<5
8,DADAK [Peptide 57],<5
9,YKQEG [Peptide 34],<5
10,EGDKC [Peptide 37],<5
11,QHQCV [Peptide 4],<5
12,HQCVK [Peptide 5],<5
13,PTCNE [Peptide 47],<5
14,SGCFR [Peptide 16],<5
15,QEGDK [Peptide 36],<5
16,CVENP [Peptide 41],<5
17,HLDER [Peptide 21],<5
18,GGCDA [Peptide 54],<5
19,PNPTC [Peptide 45],<5
20,TEEDS [Peptide 63],<5

# Target: Human IgG (Calbiochem; San Diego Calif.) (human)
# Experiment: IgG displaced from peptide pin; competitor MSP1-19
# Settings: not given
row,Molecule,ΔF (%)
1,DGIFC [Peptide# 88],7
2,SYPLF [Peptide# 83],13
3,VKKQC [Peptide# 8],< 5
4,PDSYP [Peptide# 81],9
5,FDGIF [Peptide# 87],9
6,YPLFD [Peptide# 84],12
7,TKPDS [Peptide# 79],11
8,KPDSY [Peptide# 80],11
9,LFDGI [Peptide# 86],11
10,GIFCS [Peptide# 89],11
11,PLFDG [Peptide# 85],16
12,CTKPD [Peptide# 78],10
13,KKQCP [Peptide# 9],< 5
14,DSYPL [Peptide# 82],9
